Experimental data published in US7855166B2, “Sulfonylamino(thio)carbonyl compounds” (Bayer Cropscience GmbH, priority 2005, dated 2010).

How the values were obtained:
[1] = tested on: weed plants such as Sinapis alba, Chrysanthemum segetum, Avena sativa, Stellaria media, Echinochloa crus-galli, Lolium multiflorum, Setaria viridis, Abutilon …; test: Pre-emergence effect on weeds (greenhouse pot test, visual scoring); format: in vivo; conditions: applied pre-emergence at a rate of 0.3 kg or less of active substance per hectare; scored after 3 to 4 weeks in comparison to untreated controls
[2] = tested on: weed plants such as Sinapis alba, Echinochloa crus-galli, Lolium multiflorum, Chrysanthemum segetum, Setaria viridis, Abutilon theophrasti, Amaranthus …; test: Post-emergence effect on weeds (greenhouse pot test, visual scoring); format: in vivo; conditions: applied post-emergence (three-leaf stage) at a rate of 0.3 kg or less of active substance per hectare; scored after about 3 to 4 weeks in comparison to untreated controls

SMILES	herbicidal action against weed plants (visual scoring of plant damage or emergence damage) [1]	herbicidal action against weed plants (effect scored visually) [2]
CCCCc1ccc(S(=O)(=O)NC(=O)n2nc(OC)n(C3CC3)c2=O)c(I)c1 [Compound 1.886]	very good herbidical action	very good herbicidal action
CCCCc1ccc(S(=O)(=O)NC(=O)n2nc(OCC)n(C3CC3)c2=O)c(I)c1 [Compound 1.887]	very good herbidical action	very good herbicidal action
CCCCc1ccc(S(=O)(=O)NC(=O)n2nc(OCCC)n(C3CC3)c2=O)c(I)c1 [Compound 1.888]	very good herbidical action	very good herbicidal action
CCCCc1ccc(S(=O)(=O)NC(=O)n2nc(OC(C)C)n(C)c2=O)c(I)c1 [Compound 1.889]	very good herbidical action	very good herbicidal action
CCOc1nn(C(=O)NS(=O)(=O)c2ccc(C(F)(F)F)cc2I)c(=O)n1C [Compound 1.890]	very good herbidical action	very good herbicidal action
CCOc1nn(C(=O)NS(=O)(=O)c2ccc(C(F)(F)F)cc2I)c(=O)n1C1CC1 [Compound 1.891]	very good herbidical action	very good herbicidal action
O=C(NS(=O)(=O)c1ccc(C(F)(F)F)cc1I)n1nc(C2CC2)n(C2CC2)c1=O [Compound 1.892]	very good herbidical action	very good herbicidal action
COc1nn(C(=O)NS(=O)(=O)c2ccc(C(F)(F)F)cc2I)c(=O)n1C [Compound 1.893]	very good herbidical action	very good herbicidal action
CCCOc1nn(C(=O)NS(=O)(=O)c2ccc(C(F)(F)F)cc2I)c(=O)n1C [Compound 1.894]	very good herbidical action	very good herbicidal action
CC(C)Oc1nn(C(=O)NS(=O)(=O)c2ccc(C(F)(F)F)cc2I)c(=O)n1C [Compound 1.895]	very good herbidical action	very good herbicidal action
COc1nn(C(=O)NS(=O)(=O)c2ccc(C(F)(F)F)cc2I)c(=O)n1C1CC1 [Compound 1.896]	very good herbidical action	very good herbicidal action
